Reference: patent publication US20210015793A1, “COMPOUNDS FOR TREATING CNS- AND NEURODEGENERATIVE DISEASES” (ETH ZURICH, priority 2018, published 2021)

Assays:
Tg2576 AD mice = assay: Abeta plaque load by immunohistology (BAM-10) in Tg2576 mice; type: in vivo, mouse; conditions: 18-month-old Tg2576 mice, 8 mg/kg/d in drinking water for 6 months, vs untreated Tg2576 controls
From the text: For a genetic model of familial AD (FAD), Tg2576 mice (Taconic Biosciences, Rensselaer, N.Y., USA) were used with neuron-specific overexpression of human APPSwe, i.e the Swedish mutation of APP695 isolated from a Swedish family with FAD featuring the double mutation K670N/M671L (Hsiao et al., Science 274, 99-103 (1996)). As a genetic model of tauopathy, the Tg-TauP301L mice (Model 2508, Taconic Biosciences, Rensselaer, N.Y., USA) with neuron-specific expression of the most common FTDP-17 (frontotemporal dementia and parkinsonism linked to chromosome 17) mutation (Lewis et al., Nature Genetics 25, 402-405 (2000)) were used. To enhance neurodegeneration and neuronal loss, the CUMS (chronic unpredictable mild stress) protocol was performed with male 12 months-old Tg2576 mice for 3 months essentially as described (AbdAlla et al., J. Biol. Chem. 284, 6554-6565 (2009); AbdAlla et al., J. Biol. Chem. 284, 6566-6574 (2009)). […]
For Abeta plaque load quantification by immunohistochemistry, paraffin-embedded brain sections (or cryosections) (8 microm, 10-15 sections/brain taken at 30-50 microm intervals) were prepared from brains isolated from 18-month-old Tg2576 mice (Taconic Biosciences, Rensselaer, N.Y., USA) treated for six months without and with Compound-1 and Compound-4 (8 mg/kg body weight/day in drinking water). […]

[1] = test system: rats subjected to the CUMS protocol; assay: Immunoblot detection of hippocampal PHF-Tau (AT8) in aged rats subjected to CUMS; type: in vivo, rat; conditions: 16 months-old rats, CUMS for 4 weeks, oral treatment 8 mg/kg/d
Method: As a model for reproducing major features of sporadic AD and depression, 15 months-old male rats were […] according to the CUMS protocol for 4 weeks. The following stimuli were administered each week in a random order: two periods (7 h and 17 h) of 45° cage tilt; soaked cage for 17 h; food deprivation (24 h) and water deprivation (12 h), twice a week; paired housing (17 h); overnight illumination during the dark phase, twice a week; noise (85 dB) in the room for 5 h, twice a week; flashing light (60 flashes/min) for 6 h, three times a week (AbdAlla et al., Biomed. Res. Int. 2015:917156 (2015); El-faramawy et al., Pharmacol. Biochem. Behav. 91, 339-344 (2009)). The sucrose preference test (2% sucrose in water) was done immediately after a period of food and water deprivation. […]
For immunoblot detection of PHF-Tau in the hippocampus of aged 16 month-old rats subjected to the CUMS protocol for 4 weeks, hippocampi were dissected out from isolated brains on ice, pulverized under liquid nitrogen, and proteins were extracted with guanidine-hydrochloride (6.25 M guanidine hydrochloride in 50 mM Tris, pH 8.0 supplemented with 1× protease inhibitors and 1× phosphatase inhibitors) for 30 min at 4° C. […] For quantitative analysis, quantitative immunoblot evaluation was performed. To control for equal protein loading, the total content of hippocampal Gnb was determined. […]

SMILES: O=C(C1=C(O)C(c2ccccc2)N(c2ccc3c(c2)OCO3)C1=O)C1CC1 (centres unmarked) [Compound-1, 1-(1,3-benzodioxol-5-yl)-4-(cyclopropane-carbonyl)-3-hydroxy-2-phenyl-2H-pyrrol-5-one]
- Abeta plaque load in hippocampus and frontal cortex (Tg2576 AD mice): significantly retarded the accumulation of Abeta plaques
- hippocampal PHF Tau hyperphosphorylation (immunoblot AT8) [1]: retard PHF Tau hyperphosphorylation
